This data set has as its system hepatocyte-like cells. The conditions noted are these: against VitroHES reference protocol.

As for `C[C@@H]1C[C@H]2[C@@H]3CCC4=CC(=O)C=C[C@]4(C)[C@@]3(F)[C@@H](O)C[C@]2(C)[C@@]1(O)C(=O)CO` [Dexamethasone], the “morphology / appearance of hepatocyte-like cells” value is “improved the appearance of the HCLC”.

The record behind these values is patent US20110250686A1 (CELLARTIS AB, priority 2006, published 2011).
